Test system: hematological tumor cell lines
Assay: 3-day proliferation assay (CellTiter-Glo)
Format: cell-based, human
Conditions: for IC50: Homo sapiens
Method: Various tumor cell lines were obtained from different sources including; the American Type Cell Culture Collection, the Developmental Therapeutics Program, the National Cancer Institute, the German Resource Center for Biological Material and the European Collection of Animal Cell Cultures. Cell lines were typically grown in […] containing 10% FBS. Some cell lines were grown in media specified by the vendor. A 3-day proliferation assay using CellTiter-Glo (CTG, Promega) was performed to measure the growth inhibition by the compounds at 0–30 µM. Cell growth was determined relative to untreated (DMSO) controls. EC50's were calculated from inhibition curves using a 4- or 6-parameter fitting algorithm in the Assay Client application.

Cn1ncc(Cl)c1-c1cc(C(=O)N[C@H](CN)Cc2ccc(F)c(F)c2)oc1Cl [GSK2141795]
hematological cell lines sensitive (EC50<1 µM) (112 cell lines, 3 days, CTG): 81%
IC50 (1A2, 1A2 cell line, Burkitt's Lymphoma, B Cell): 93 nM
IC50 (697 cell line, ALL, pre-B Cell): 300 nM
IC50 (ARH-77, ARH77 cell line, Multiple Myeloma, B Cell): 155 nM
IC50 (B-cell, BDCM cell line, AML, B Cell): 14 nM
IC50 (B-cell, CESS cell line, AML, B Cell): 9 nM
IC50 (B-cell, CRO-AP3 cell line, Primary Effusion Lymphoma (PEL), B Cell): 113 nM
IC50 (B-cell, EHEB cell line, CLL, B Cell): 51 nM
IC50 (B-cell, HKB-11 cell line, Burkitt's Lymphoma, B Cell): 52 nM
IC50 (B-cell, HS-Sultan cell line, Burkitt's Lymphoma, B Cell): 226 nM
IC50 (B-cell, KARPAS-231 cell line, ALL, B Cell): 36 nM
IC50 (B-cell, MC/CAR cell line, Multiple Myeloma, B Cell): 40 nM
IC50 (B-cell, MN60 cell line, ALL, B Cell): 653 nM
IC50 (B-cell, Namalwa cell line, Burkitt's Lymphoma, B Cell): 300 nM
IC50 (B-cell, SD-1 cell line, ALL, B Cell): 15 nM
IC50 (B-cell, Tanoue cell line, ALL, B Cell): 1460 nM
IC50 (BC1, BC1 cell line, Burkitt's Lymphoma, B Cell): 465 nM
IC50 (BC-3, BC3 cell line, Burkitt's Lymphoma, B Cell): 3130 nM
IC50 (BV-173, BV173 cell line, CML, pre-B Cell): 860 nM
IC50 (CA46, CA46 cell line, Burkitt's Lymphoma, B Cell): 948 nM
IC50 (CCRF-CEM, CCRFCEM cell line, ALL, T Cell): 146 nM
IC50 (CCRF-SB, CCRFSB cell line, ALL, B Cell): 20 nM
IC50 (CEM/C1, CEM/C1 cell line, ALL, T Cell): 30 nM
IC50 (CEM/C2, CEM/C2 cell line, ALL, T Cell): 22 nM
IC50 (CML-T1, CML-T1 cell line, CML, T Cell): 5230 nM
IC50 (CRO-AP5, CRO-AP5 cell line, Primary Effusion Lymphoma (PEL), B Cell): 34 nM
IC50 (DB, DB cell line, Non-Hodgkin's Lymphoma, B Cell): 5220 nM
IC50 (DG-75, DG75 cell line, Burkitt's Lymphoma, B Cell): 14800 nM
IC50 (DOHH-2, DOHH-2 cell line, Non-Hodgkin's Lymphoma, B Cell): 10.5 nM
IC50 (Daudi, DAUDI cell line, Burkitt's Lymphoma, B Cell): 269 nM
IC50 (EB1, EB1 cell line, Burkitt's Lymphoma, B Cell): 49 nM
IC50 (EB2, EB2 cell line, Burkitt's Lymphoma, B Cell): 256 nM
IC50 (EB-3, EB3 cell line, Burkitt's Lymphoma, B Cell): 1760 nM
IC50 (EM-2, EM2 cell line, CML, Unspecified): 1650 nM
IC50 (Farage cell line, Non-Hodgkin's Lymphoma, B Cell): 103 nM
IC50 (GA-10, GA-10 cell line, Burkitt's Lymphoma, B Cell): 17 nM
IC50 (GDM-1, GDM-1 cell line, AML, Monoblast): 3070 nM
IC50 (HD-MY-Z cell line, Hodgkin's Lymphoma, Unspecified): 8290 nM
IC50 (HEL 92.1.7, HEL92.1.7 cell line, AML, Erythroleukemia): 7760 nM
IC50 (HH, HH cell line, Non-Hodgkin's Lymphoma (CTCL), T Cell): 85 nM
IC50 (HL-60, HL-60 cell line, AML, Myeloblast): 3720 nM
IC50 (HSB2, HSB2 cell line, ALL, T Cell): 576 nM
IC50 (HT, HT cell line, Burkitt's Lymphoma, B Cell): 93 nM
IC50 (HuT78, HuT78 cell line, Non-Hodgkin's Lymphoma (CTCL), T Cell): 147 nM
IC50 (J.gamma1, J.Gamma-1 cell line, ALL, T Cell): 21 nM
IC50 (JIYOYE, JIYOYE cell line, Burkitt's Lymphoma, B Cell): 536 nM
IC50 (JM1, JM1 cell line, Burkitt's Lymphoma, pre-B Cell): 212 nM
IC50 (JVM13, JVM13 cell line, CLL, B Cell): 84 nM
IC50 (JVM-2, JVM2 cell line, CLL, B Cell): 13 nM
IC50 (JVM-3, JVM-3 cell line, CLL, B Cell): 8480 nM
IC50 (Jurkat, Jurkat cell line, ALL, T Cell): 17 nM
IC50 (K562, K562 cell line, CML, Lymphoblast): 9780 nM
IC50 (KG-1, KG-1 cell line, AML, B Cell): 281 nM
IC50 (KU812, Ku812 cell line, CML, Basophilic Leukocyte): 72 nM
IC50 (Kasumi 1, Kasumi-1 cell line, AML, Myeloblast): 22.3 nM
IC50 (Kasumi-2 cell line, AML, Myeloblast): 457 nM
IC50 (L-428, L428 cell line, Hodgkin's Lymphoma, Unspecified): 1.2 nM
IC50 (MC116, MC116 cell line, Burkitt's Lymphoma, B Cell): 320 nM
IC50 (MEC1, MEC1 cell line, CLL, B Cell): 168 nM
IC50 (MEC2, MEC-2 cell line, CLL, B Cell): 112 nM
IC50 (MEG-01, MEG01 cell line, CML, Megakaryoblastic): 285 nM
IC50 (MHH-CALL-3 cell line, ALL, pre-B Cell): 26 nM
IC50 (MHH-PREB-1, MHH-PREB-1 cell line, Non-Hodgkin's Lymphoma, B Cell): 932 nM
IC50 (ML-2, ML-2 cell line, AML, Myelomonocytic): 399 nM
IC50 (MOLT-3, MOLT3 cell line, ALL, T Cell): 19 nM
IC50 (MOLT-4, Molt-4 cell line, ALL, T Cell): 10 nM
IC50 (MOLT-16, MOLT16 cell line, ALL, T Cell): 15 nM
IC50 (MV4-11, MV-4-11 cell line, AML, Myelomonocytic): 875 nM
IC50 (NALM-6, Nalm-6 cell line, ALL, pre-B Cell): 74 nM
IC50 (NC-37, NC-37 cell line, Burkitt's Lymphoma, B Cell): 752 nM
IC50 (NOMO-1, Nomo-1 cell line, AML, B Cell): 48 nM
IC50 (NU-DHL-1, NU-DHL-1 cell line, Burkitt's Lymphoma, B Cell): 16 nM
IC50 (OCI-AML2, OCI-AML-2 cell line, AML, B Cell): 18100 nM
IC50 (OCI-AML-3, OCI-AML-3 cell line, AML, B Cell): 28 nM
IC50 (OCI-M1, OCI-M1 cell line, AML, B Cell): 644 nM
IC50 (P3HR-1, P3HR-1 cell line, Burkitt's Lymphoma, B Cell): 17 nM
IC50 (PLB-985, PLB985 cell line, AML, B Cell): 1140 nM
IC50 (Pfeiffer, Pfeiffer cell line, Non-Hodgkin's Lymphoma, B Cell): 10 nM
IC50 (RCH-ACV cell line, ALL, pre-B Cell): 157 nM
IC50 (RCK8, RC-K8 cell line, Non-Hodgkin's Lymphoma (Histiocytic), B Cell): 1750 nM
IC50 (REH, Reh cell line, ALL, pre-B Cell): 92 nM
IC50 (RL, RL cell line, Non-Hodgkin's Lymphoma, B Cell): 72 nM
IC50 (RPMI-6666, RPMI 6666 cell line, Hodgkin's Lymphoma, Lymphoblast): 121 nM
IC50 (RS4-11, RS4;11 cell line, ALL, B Cell): 177 nM
IC50 (Raji, Raji cell line, Burkitt's Lymphoma, B Cell): 6370 nM
IC50 (Rec1, REC-1 cell line, Non-Hodgkin's Lymphoma, B Cell): 721 nM
IC50 (SC-1, SC1 cell line, Burkitt's Lymphoma, B Cell): 965 nM
IC50 (SEM cell line, ALL, pre-B Cell): 210 nM
IC50 (SKO-007, SKO-007 cell line, Multiple Myeloma, B Cell): 4890 nM
IC50 (SKW3, SKW-3 cell line, CLL, B Cell): 26 nM
IC50 (SR, SR cell line, Non-Hodgkin's Lymphoma, Lymphoblast): 1960 nM
IC50 (ST486, ST486 cell line, Burkitt's Lymphoma, B Cell): 745 nM
IC50 (SU-DHL10, SU-DHL-10 cell line, Non-Hodgkin's Lymphoma, B Cell): 73 nM
IC50 (SU-DHL-4, SU-DHL-4 cell line, Non-Hodgkin's Lymphoma, B Cell): 53 nM
IC50 (SU-DHL-5, SU-DHL-5 cell line, Non-Hodgkin's Lymphoma, B Cell): 31 nM
IC50 (SU-DHL-6, SU-DHL-6 cell line, Non-Hodgkin's Lymphoma, B Cell): 35 nM
IC50 (SU-DHL-16, SU-DHL-16 cell line, Non-Hodgkin's Lymphoma, B Cell): 23 nM
IC50 (SUP-B15, SUP B15 cell line, ALL, B Cell): 824 nM
IC50 (T-cell, 8E5 cell line, ALL, T Cell): 31 nM
IC50 (T-cell, A3 cell line, ALL, T Cell): 38 nM
IC50 (T-cell, CEM/C3 cell line, ALL, T Cell): 18 nM
IC50 (T-cell, I2.1 cell line, ALL, T Cell): 26 nM
IC50 (T-cell, I9.2 cell line, ALL, T Cell): 43 nM
IC50 (T-cell, J.Cam.1.6 cell line, ALL, T Cell): 41 nM
IC50 (T-cell, J.RT-T3.5 cell line, ALL, T Cell): 30 nM
IC50 (T-cell, JR45.01 cell line, ALL, T Cell): 16 nM
IC50 (T-cell, LOUCY cell line, ALL, T Cell): 13 nM
IC50 (T-cell, MJ cell line, Non-Hodgkin's Lymphoma (CTCL), T Cell): 2880 nM
IC50 (T-cell, P116 cell line, ALL, T Cell): 18 nM
IC50 (T-cell, SUPTI(VB) cell line, ALL, T Cell): 115 nM
IC50 (TO 175.T, TO 175.T cell line, Hodgkin's Lymphoma, Unspecified): 5250 nM
IC50 (Toledo, Toledo cell line, Non-Hodgkin's Lymphoma, B Cell): 99 nM
IC50 (U-937, U937 cell line, Non-Hodgkin's Lymphoma (Histiocytic), Monocyte): 22 nM
